Measured values: patent publication US20060205787A1, “Methods and compositions using 4-amino-2-(3-methyl-2,6-dioxopiperidin-3-yl)-isoindole-1,3-dione” (priority 2005, published 2006)

Row | melting point | Compound
1 | 111 to 113 °C | CC1(N2C(=O)c3cccc(NC(=O)CN)c3C2=O)CCC(=O)NC1=O.Cl (stereo not drawn)
2 | 235 to 237 °C | C[C@]1(N2C(=O)c3cccc(N)c3C2=O)CCC(=O)NC1=O [Example 5.1.11, (3S)-4-Amino-2-(3-Methyl-2,6-Dioxopiperidin-3-yl)-Isoindole-1,3-Dione]
3 | > 260 °C | C[C@]1(N2C(=O)c3cccc(NC(=O)CN)c3C2=O)CCC(=O)NC1=O.Cl
